In patent US12479858B2, “Macrocyclic compounds as sting agonists and methods and uses thereof” (Lupin Limited, priority 2019, dated 2025):
≈ marks a conversion by molar mass, not a printed value. Structures can show the parent of a compound that is named as a salt.

Tests used:
[1] = Apparent solubility/extended kinetic solubility by UHPLC; type: physicochemical; settings: aqueous buffer, thermodynamic from solid, phosphate buffer, 37° C.
Experimental: Biological Assay—Determination of Apparent Solubility/Extended Kinetic Solubility by UHPLC
Test sample preparation: About 0.5 mg of the test sample was weighed and transferred in duplicate in 1 mL glass inserts of 96 well plates. 5 μL of DMSO and 1 ml of phosphate buffer were added. Allowed for equilibrium in an orbital shaker at 37° C. for 24 hrs. Later, allowed it cool to room temperature and centrifuged the 96 well plate (at 240×10 RPM for 20 min) and supernatant material was taken into collection plate, covered it with the heat resistant aluminum sheet or supernatant material was directly taken into HPLC sample vial.
Injected diluent as blank and linearity solutions in duplicate. Recorded the chromatograms and plotted the calibration curve, concentration (X-axis) versus Area (y-axis). The correlation coefficient for calibration curve should be not less than 0.95. If above criteria passes, then injected the test samples and recorded the chromatograms. In case saturated peaks are observed, then diluted the test sample with diluent as appropriate.
Calculated the slope and intercept of the calibration curve. From the standard curve, determined the solubility of the sample in μM (micromolar).

Human STING = molecular target: T1, Human STING (Homo sapiens, UniProt Q86WV6, G230A/H232R/R293Q/R71H); assay: Stimulation of human STING signaling in THP1 cell line (THP1-Blue ISG SEAP reporter); type: cell-based; settings: THP1-Blue ISG cells, SEAP activity, 18-20 hours
T1 construct: using human THP1-Blue™ ISG SEAP based reporter cell line (Invivogen); host or cells: THP1-Blue ISG cells (human monocytic THP-1 derived SEAP reporter line)
T1 sequence (Q86WV6 whole entry R71H/G230A/H232R/R293Q): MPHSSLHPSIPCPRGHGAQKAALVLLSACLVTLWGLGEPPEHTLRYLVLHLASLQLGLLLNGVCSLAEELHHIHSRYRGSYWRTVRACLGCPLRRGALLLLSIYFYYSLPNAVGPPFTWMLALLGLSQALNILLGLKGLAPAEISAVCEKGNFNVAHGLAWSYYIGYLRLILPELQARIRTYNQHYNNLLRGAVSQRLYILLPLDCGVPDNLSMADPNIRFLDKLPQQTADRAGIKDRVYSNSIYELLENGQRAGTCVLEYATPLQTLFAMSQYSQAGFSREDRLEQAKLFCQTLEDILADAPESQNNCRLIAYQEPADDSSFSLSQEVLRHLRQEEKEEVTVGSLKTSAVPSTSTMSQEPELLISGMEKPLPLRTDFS
Experimental: Biological Assay—Stimulation of Human STING Signaling in THP1 Cell Line
Compounds were tested for their STING activation potential using human THP1-Blue™ ISG SEAP based reporter cell line (Invivogen). Briefly, THP1-Blue ISG cells (100,000 cells/well) in 96 well plate were treated with varying concentrations of test and reference compounds and incubated at 37° C. with 5% CO2 for 18-20 hours. The control untreated cells were also set up. Post incubation, the cell supernatant was tested for SEAP (Secreted Embryonic Alkaline Phosphatase) activity using the QuantiBlue™ substrate reagent (Invivogen). The formation of blue coloured product was quantified by measuring absorbance at wavelength of 620 nm using PheraStar/Tecan reader. The average of duplicate readouts for each data point was plotted in GraphPad prism 6 against the concentration of test or reference compound to calculate EC50 value. The fold of SEAP induction or increase in luminescence at different data points was estimated against the un-stimulated cell control set.

| solubility at 24 h [1] [µM] | EC50 (Human STING) [nM] | Structure (SMILES) |
| --- | --- | --- |
| 1120 | 1 to 10 | CCn1nc(C)cc1C(=O)Nc1nc2cc(C(N)=O)cc3c2n1C/C=C/Cn1c(NC(=O)c2cc(C)nn2CC)nc2cc(C(=O)NCCc4ccccc4C(=O)O)cc(c21)OCCCO3 [Compound 5, (E)-2-(2-(12-carbamoyl-1,15-bis(1-ethyl-3-methyl-1H-pyrazole-5-carboxamido)-8,9,16,19-tetrahydro-7H-6,10-dioxa-2,14,15a,19a-tetraazacyclopentadeca[3,2,1-cd:8,9,10-c′d′]diindene-4-carboxamido)ethyl)benzoic acid sodium salt] |
| – | 11 to 100 | CCn1nc(C)cc1C(=O)Nc1nc2cc(C(N)=O)cc3c2n1C/C=C/Cn1c(NC(=O)c2cc(C)nn2CC)nc2cc(C(=O)N[C@H]4CC[C@@H](C(=O)O)CC4)cc(c21)OCCCO3 [Compound 1, (1S,4S)-4-((E)-12-carbamoyl-1,15-bis(1-ethyl-3-methyl-1H-pyrazole-5-carboxamido)-8,9,16,19-tetrahydro-7H-6,10-dioxa-2,14,15a,19a-tetraazacyclopentadeca[3,2,1-cd:8,9,10-c′d′]diindene-4-carboxamido)cyclohexane-1-carboxylic acid] |
| – | 11 to 100 | CCn1nc(C)cc1C(=O)Nc1nc2cc(C(N)=O)cc3c2n1C/C=C/Cn1c(NC(=O)c2cc(C)nn2CC)nc2cc(C(=O)N[C@H]4CC[C@H](C(=O)O)CC4)cc(c21)OCC(N1CC2CCC(C1)O2)CO3 (stereo partly drawn) [Compound 20, (1R,4R)-4-((E)-8-(8-oxa-3-azabicyclo[3.2.1]octan-3-yl)-12-carbamoyl-1,15-bis(1-ethyl-3-methyl-1H-pyrazole-5-carboxamido)-8,9,16,19-tetrahydro-7H-6,10-dioxa-2,14,15a,19a-tetraazacyclopentadeca[3,2,1-cd:8,9,10-c′d′]diindene-4-carboxamido)cyclohexane-1-carboxylic acid] |
| 631 (≈ 552 µg/mL) | 11 to 100 | CCn1nc(C)cc1C(=O)Nc1nc2cc(C(N)=O)cc3c2n1C/C=C/Cn1c(NC(=O)c2cc(C)nn2CC)nc2cc(C(=O)NCCCn4nn[nH]c4=O)cc(c21)OCCCO3 [Compound 10, (E)-1,15-bis(1-ethyl-3-methyl-1H-pyrazole-5-carboxamido)-N-(3-(5-oxo-4,5-dihydro-1H-tetrazol-1-yl)propyl)-8,9,16,19-tetrahydro-7H-6,10-dioxa-2,14,15a,19a-tetraazacyclopentadeca[3,2,1-cd:8,9,10-c′d′]diindene-4,12-dicarboxamide] |
| 149 (≈ 126 µg/mL) | 1 to 10 | CCn1nc(C)cc1C(=O)Nc1nc2cc(C(N)=O)cc3c2n1C/C=C/Cn1c(NC(=O)c2cc(C)nn2CC)nc2cc(C(=O)NCCc4nnn[nH]4)cc(c21)OCCCO3 [Compound 4, (E)-N-(2-(1H-tetrazol-5-yl)ethyl)-1,15-bis(1-ethyl-3-methyl-1H-pyrazole-5-carboxamido)-8,9,16,19-tetrahydro-7H-6,10-dioxa-2,14,15a,19a-tetraazacyclopentadeca[3,2,1-cd:8,9,10-c′d′]diindene-4,12-dicarboxamide] |
| 100 (≈ 88.4 µg/mL) | 11 to 100 | CCn1nc(C)cc1C(=O)Nc1nc2cc(C(N)=O)cc3c2n1C/C=C/Cn1c(NC(=O)c2cc(C)nn2CC)nc2cc(C(=O)NCc4ncccc4C(=O)O)cc(c21)OCCCO3 [Compound 9, (E)-2-((4-carbamoyl-1,15-bis(1-ethyl-3-methyl-1H-pyrazole-5-carboxamido)-8,9,16,19-tetrahydro-7H-6,10-dioxa-2,14,15a,19a-tetraazacyclopentadeca[3,2,1-cd:8,9,10-c′d′]diindene-12-carboxamido)methyl)nicotinic acid] |
| – | 11 to 100 | CCn1nc(C)cc1C(=O)Nc1nc2cc(C(N)=O)cc3c2n1C/C=C/Cn1c(NC(=O)c2cc(C)nn2CC)nc2cc(C(=O)N[C@H]4CC[C@H](c5nnn[nH]5)CC4)cc(c21)OCC(N1CC2CCC(C1)O2)CO3 (stereo partly drawn) [Compound 22, (E)-N-((1R,4R)-4-(1H-tetrazol-5-yl)cyclohexyl)-8-(8-oxa-3-azabicyclo[3.2.1]octan-3-yl)-1,15-bis(1-ethyl-3-methyl-1H-pyrazole-5-carboxamido)-8,9,16,19-tetrahydro-7H-6,10-dioxa-2,14,15a,19a-tetraazacyclopentadeca [3,2,1-cd:8,9,10-c′d′]diindene-4,12-dicarboxamide] |
| – | 11 to 100 | CCn1nc(C)cc1C(=O)Nc1nc2cc(C(N)=O)cc3c2n1C/C=C/Cn1c(NC(=O)c2cc(C)nn2CC)nc2cc(C(=O)N[C@H]4CC[C@@H](c5nnn[nH]5)CC4)cc(c21)OCCCO3 [Compound 7, (E)-N-((1S,4S)-4-(1H-tetrazol-5-yl)cyclohexyl)-1,15-bis(1-ethyl-3-methyl-1H-pyrazole-5-carboxamido)-8,9,16,19-tetrahydro-7H-6,10-dioxa-2,14,15a,19a-tetraazacyclopentadeca[3,2,1-cd:8,9,10-c′d′]diindene-4,12-dicarboxamide] |

The remaining lines, values behind:

| Structure (SMILES) | solubility at 24 h [1] [µM] | EC50 (Human STING) [nM] |
| --- | --- | --- |
| CCn1nc(C)cc1C(=O)Nc1nc2cc(C(N)=O)cc3c2n1C/C=C/Cn1c(NC(=O)c2cc(C)nn2CC)nc2cc(C(=O)NCCCc4nnn[nH]4)cc(c21)OC[C@@H](N1C2CCC1COC2)CO3 [Compound 16, (8S,E)-N4-(3-(1H-tetrazol-5-yl)propyl)-8-(3-oxa-8-azabicyclo[3.2.1]octan-8-yl)-1,15-bis(1-ethyl-3-methyl-1H-pyrazole-5-carboxamido)-8,9,16,19-tetrahydro-7H-6,10-dioxa-2,14,15a,19a-tetraazacyclopentadeca[3,2,1-cd:8,9,10-c′d′]diindene-4,12-dicarboxamide sodium salt] | 243 | 1 to 10 |
| CCn1nc(C)cc1C(=O)Nc1nc2cc(C(N)=O)cc3c2n1C/C=C/Cn1c(NC(=O)c2cc(C)nn2CC)nc2cc(C(=O)NCCCc4noc(=O)[nH]4)cc(c21)OCCCO3 [Compound 11, (E)-1,15-bis(1-ethyl-3-methyl-1H-pyrazole-5-carboxamido)-N-(3-(5-oxo-4,5-dihydro-1,2,4-oxadiazol-3-yl)propyl)-8,9,16,19-tetrahydro-7H-6,10-dioxa-2,14,15a,19a-tetraazacyclopentadeca[3,2,1-cd:8,9,10-c′d′]diindene-4,12-dicarboxamide] | 98 (≈ 85.7 µg/mL) | 1 to 10 |
| CCn1nc(C)cc1C(=O)Nc1nc2cc(C(N)=O)cc3c2n1C/C=C/Cn1c(NC(=O)c2cc(C)nn2CC)nc2cc(C(=O)NCCCn4cc(C(=O)O)cn4)cc(c21)OC[C@H](N1C2CCC1COC2)CO3 [Compound 19, 1-(3-((8R,E)-8-(3-oxa-8-azabicyclo[3.2.1]octan-8-yl)-12-carbamoyl-1,15-bis(1-ethyl-3-methyl-1H-pyrazole-5-carboxamido)-8,9,16,19-tetrahydro-7H-6,10-dioxa-2,14,15a,19a-tetraazacyclopentadeca[3,2,1-cd:8,9,10-c′d′]diindene-4-carboxamido)propyl)-1H-pyrazole-4-carboxylic acid sodium salt] | – | 11 to 100 |
| CCn1nc(C)cc1C(=O)Nc1nc2cc(C(N)=O)cc3c2n1C/C=C/Cn1c(NC(=O)c2cc(C)nn2CC)nc2cc(C(=O)NCCCc4nnn[nH]4)cc(c21)OC[C@H](N1C2CCC1COC2)CO3 [Compound 17, (8R,E)-N4-(3-(1H-tetrazol-5-yl)propyl)-8-(3-oxa-8-azabicyclo[3.2.1]octan-8-yl)-1,15-bis(1-ethyl-3-methyl-1H-pyrazole-5-carboxamido)-8,9,16,19-tetrahydro-7H-6,10-dioxa-2,14,15a,19a-tetraazacyclopentadeca[3,2,1-cd:8,9,10-c′d′]diindene-4,12-dicarboxamide sodium salt] | – | 11 to 100 |
| CCn1nc(C)cc1C(=O)Nc1nc2cc(C(N)=O)cc3c2n1C/C=C/Cn1c(NC(=O)c2cc(C)nn2CC)nc2cc(C(=O)NCCCn4cc(C(=O)O)cn4)cc(c21)OC[C@@H](N1C2CCC1COC2)CO3 [Compound 18, 1-(3-((8S,E)-8-(3-oxa-8-azabicyclo[3.2.1]octan-8-yl)-12-carbamoyl-1,15-bis(1-ethyl-3-methyl-1H-pyrazole-5-carboxamido)-8,9,16,19-tetrahydro-7H-6,10-dioxa-2,14,15a,19a-tetraazacyclopentadeca[3,2,1-cd:8,9,10-c′d′]diindene-4-carboxamido)propyl)-1H-pyrazole-4-carboxylic acid sodium salt] | 250 | 1 to 10 |
| CCn1nc(C)cc1C(=O)Nc1nc2cc(C(N)=O)cc3c2n1C/C=C/Cn1c(NC(=O)c2cc(C)nn2CC)nc2cc(C(=O)NCCCc4nnn[nH]4)cc(c21)OCCCO3 [Compound 3, (E)-N-(3-(1H-tetrazol-5-yl)propyl)-1,15-bis(1-ethyl-3-methyl-1H-pyrazole-5-carboxamido)-8,9,16,19-tetrahydro-7H-6,10-dioxa-2,14,15a,19a-tetraazacyclopentadeca[3,2,1-cd:8,9,10-c′d′]diindene-4,12-dicarboxamide sodium salt] | 928 | 1 to 10 |
